Source: patent publication US10501445B2, “Quinoxalinones and dihydroquinoxalinones as respiratory syncytial virus antiviral agents” (JANSSEN SCIENCES IRELAND UC, priority 2013, dated 2019)

Legend:
[1] = system: rgRSV224 virus; assay: Antiviral activity: rgRSV224 (GFP-expressing RSV) replication in HeLa cells, GFP expression readout; format: cell-based; conditions: human respiratory syncytial virus, 72 h, read-out: WT activity EC50
Experimental: (§1) Black 96-well clear-bottom microtiter plates (Corning, Amsterdam, The Netherlands) were filled in duplicate using a customized robot system with serial 4-fold dilutions of compound in a final volume of 50 μl culture medium [RPMI medium without phenol red, 10% FBS, 0.04% gentamycin (50 mg/ml) and 0.5% DMSO]. Then, 100 μl of a HeLa cell suspension (5×10^4 cells/ml) in culture medium was added to each well followed by the addition of 50 μl rgRSV224 (MOI=0.02) virus in culture medium using a multidrop dispenser (Thermo Scientific, Erembodegem, Belgium). rgRSV224 virus is an engineered virus that includes an additional GFP gene (Hallak et al, 2000) and was in-licensed from the NIH (Bethesda, Md., USA). Medium, virus- and mock-infected controls were included in each test. Cells were incubated at 37° C. in a 5% CO2 atmosphere. Three days post-virus exposure, viral replication was quantified by measuring GFP expression in the cells by a MSM laser microscope (Tibotec, Beerse, Belgium). The EC50 was defined as the 50% inhibitory concentration for GFP expression. In parallel, compounds were incubated for three days in a set of white 96-well microtitier plates (Corning) and the cytotoxicity of compounds in HeLa cells was determined by measuring the ATP content of the cells using the ATPlite kit (PerkinElmer, Zaventem, Belgium) according to the manufacturer's instructions. The CC50 was defined as the 50% concentration for cytotoxicity.

[2] = in vitro; format: cell-based; conditions: human
Experimental: as §1

Row | Structure (SMILES) | EC50 [1] | CC50 at 3 days [2]
1 | O=c1cnc2ccc(Br)cc2n1Cc1nc2cc(F)ccc2n1CCCCF [Compound P1, 7-bromo-1-{[5-fluoro-1-(4-fluorobutyl)-1H-benzimidazol-2-yl]methyl}quinoxalin-2(1H)-one] | 0.071 µM | 87 µM
2 | O=c1cnc2ccc(-c3ccc(CCN4CCOCC4)cc3)cc2n1Cc1nc2cc(F)ccc2n1CCCCF [Compound P2, 1-((5-fluoro-1-(4-fluorobutyl)-1H-benzo[d]imidazol-2-yl)methyl)-7-(4-(2-morpholinoethyl)phenyl)quinoxalin-2(1H)-one] | > 10.1 µM | 94 µM
3 | O=c1cnc2ccc(-c3ccc(C(F)(F)F)cc3)cc2n1Cc1nc2cc(F)ccc2n1CCCCF [Compound P3, 1-((5-fluoro-1-(4-fluorobutyl)-1H-benzo[d]imidazol-2-yl)methyl)-7-(4-(trifluoromethyl)phenyl)quinoxalin-2(1H)-one] | > 10.1 µM | 42.4 µM
4 | Cc1nc(C)c(-c2ccc3ncc(=O)n(Cc4nc5cc(F)ccc5n4CCCCF)c3c2)s1 [Compound P4, 7-(2,4-dimethylthiazol-5-yl)-1-((5-fluoro-1-(4-fluorobutyl)-1H-benzo[d]imidazol-2-yl)methyl)quinoxalin-2(1H)-one] | 4.78 µM | 31.1 µM
5 | Cn1nc(C(F)(F)F)cc1-c1ccc2ncc(=O)n(Cc3nc4cc(F)ccc4n3CCCCF)c2c1 [Compound P5, 1-((5-fluoro-1-(4-fluorobutyl)-1H-benzo[d]imidazol-2-yl)methyl)-7-(1-methyl-3-(trifluoromethyl)-1H-pyrazol-5-yl)quinoxalin-2(1H)-one] | 4.89 µM | 53.3 µM
6 | O=c1cnc2ccc(-c3ccccc3)cc2n1Cc1nc2cc(F)ccc2n1CCCCF [Compound P6, 1-((5-fluoro-1-(4-fluorobutyl)-1H-benzo[d]imidazol-2-yl)methyl)-7-phenylquinoxalin-2(1H)-one] | 3.94 µM | 42.8 µM
7 | CN(C)Cc1cccc(-c2ccc3ncc(=O)n(Cc4nc5cc(F)ccc5n4CCCCF)c3c2)c1 [Compound P7, 7-(3-((dimethylamino)methyl)phenyl)-1-((5-fluoro-1-(4-fluorobutyl)-1H-benzo[d]imidazol-2-yl)methyl)quinoxalin-2(1H)-one] | 0.099 µM | 17.6 µM
8 | O=c1cnc2ccc(-c3ccncc3)cc2n1Cc1nc2cc(F)ccc2n1CCCCF [Compound P8, 1-((5-fluoro-1-(4-fluorobutyl)-1H-benzo[d]imidazol-2-yl)methyl)-7-(pyridin-4-yl)quinoxalin-2(1H)-one] | 2.69 µM | 86.8 µM
9 | O=c1cnc2ccc(F)cc2n1Cc1nc2cc(F)ccc2n1CCCCF [Compound P9, 7-fluoro-1-((5-fluoro-1-(4-fluorobutyl)-1H-benzo[d]imidazol-2-yl)methyl)quinoxalin-2(1H)-one] | 0.27 µM | > 100 µM
10 | O=c1cnc2cc(F)ccc2n1Cc1nc2cc(F)ccc2n1CCCCF [Compound P10, 6-fluoro-1-((5-fluoro-1-(4-fluorobutyl)-1H-benzo[d]imidazol-2-yl)methyl)quinoxalin-2(1H)-one] | 1.04 µM | > 100 µM
11 | O=c1cnc2cnccc2n1Cc1nc2cc(F)ccc2n1CCCCF [Compound P11, 1-((5-fluoro-1-(4-fluorobutyl)-1H-benzo[d]imidazol-2-yl)methyl)pyrido[3,4-b]pyrazin-2(1H)-one] | 7.21 µM | > 100 µM
12 | O=C1CN(C2CC2)c2ccncc2N1Cc1nc2cc(F)ccc2n1CCCCF [Compound P12, 1-cyclopropyl-4-((5-fluoro-1-(4-fluorobutyl)-1H-benzo[d]imidazol-2-yl)methyl)-1,2-dihydropyrido[3,4-b]pyrazin-3(4H)-one] | 0.011 µM | 50.1 µM
13 | CC(C)CCn1c(Cn2c(=O)cnc3ccc(Br)cc32)nc2nc(Cl)ccc21 [Compound P13, 7-bromo-1-((5-chloro-1-isopentyl-1H-imidazo[4,5-b]pyridin-2-yl)methyl) quinoxalin-2(1H)-one] | 0.004 µM | 46.5 µM
14 | CC(C)CCn1c(Cn2c(=O)cnc3ccc(-c4ccncc4)cc32)nc2nc(Cl)ccc21 [Compound P14, 1-((5-chloro-1-isopentyl-1H-imidazo[4,5-b]pyridin-2-yl)methyl)-7-(pyridin-4-yl)quinoxalin-2(1H)-one] | 0.061 µM | 14.7 µM
15 | CC(C)CCn1c(Cn2c(=O)cnc3ccc(-c4ccsc4)cc32)nc2nc(Cl)ccc21 [Compound P15, 1-((5-chloro-1-isopentyl-1H-imidazo[4,5-b]pyridin-2-yl)methyl)-7-(thiophen-3-yl)-quinoxalin-2(1H)-one] | 0.34 µM | 27.6 µM
16 | CC(C)CCn1c(Cn2c(=O)cnc3ccc(-c4cccn4C(=O)OC(C)(C)C)cc32)nc2nc(Cl)ccc21 [Compound P16, tert-butyl 2-(4-((5-chloro-1-isopentyl-1H-imidazo[4,5-b]pyridin-2-yl)methyl)-3-oxo-3,4-dihydroquinoxalin-6-yl)-1H-pyrrole-1-carboxylate] | 0.51 µM | 42.5 µM
17 | CC(C)CCn1c(Cn2c(=O)cnc3ccc(-c4cncnc4)cc32)nc2nc(Cl)ccc21 [Compound P17, 1-((5-chloro-1-isopentyl-1H-imidazo[4,5-b]pyridin-2-yl)methyl)-7-(pyrimidin-5-yl)quinoxalin-2(1H)-one] | 0.48 µM | > 100 µM
18 | CC(C)CCn1c(Cn2c(=O)cnc3ccc(-c4ccc(F)cc4)cc32)nc2nc(Cl)ccc21 [Compound P18, 1-((5-chloro-1-isopentyl-1H-imidazo[4,5-b]pyridin-2-yl)methyl)-7-(4-fluorophenyl)quinoxalin-2(1H)-one] | 3.33 µM | 51.5 µM
19 | CC(C)CCn1c(Cn2c(=O)cnc3ccc(F)cc32)nc2nc(Cl)ccc21 [Compound P19, 1-((5-chloro-1-isopentyl-1H-imidazo[4,5-b]pyridin-2-yl)methyl)-7-fluoroquinoxalin-2(1H)-one] | 0.042 µM | > 100 µM
20 | CC(C)CCn1c(Cn2c(=O)cnc3cc(F)ccc32)nc2nc(Cl)ccc21 [Compound P20, 1-((5-chloro-1-isopentyl-1H-imidazo[4,5-b]pyridin-2-yl)methyl)-6-fluoroquinoxalin-2(1H)-one] | 0.032 µM | > 100 µM
21 | CC(C)CCn1c(Cn2c(=O)cnc3cnccc32)nc2nc(Cl)ccc21 [Compound P21, 1-((5-chloro-1-isopentyl-1H-imidazo[4,5-b]pyridin-2-yl)methyl)pyrido[4,3-b]pyrazin-2(1H)-one] | > 10.1 µM | > 100 µM
22 | CC(C)CCn1c(CN2C(=O)CN(C3CC3)c3ccncc32)nc2nc(Cl)ccc21 [Compound P22, 4-((5-chloro-1-isopentyl-1H-imidazo[4,5-b]pyridin-2-yl)methyl)-1-cyclopropyl-1,2-dihydropyrido[3,4-b]pyrazin-3(4H)-one] | 0.12 µM | 60.7 µM
23 | CS(=O)(=O)CCCn1c(CN2C(=O)CN(C3CC3)c3ccncc32)nc2cc(Br)ccc21 [Compound P23, 4-((5-bromo-1-(3-(methylsulfonyl)propyl)-1H-benzo[d]imidazol-2-yl)methyl)-1-cyclopropyl-1,2-dihydropyrido[3,4-b]pyrazin-3(4H)-one] | 0.0015 µM | 71.3 µM
24 | CS(=O)(=O)CCCn1c(Cn2c(=O)cnc3ccc(F)cc32)nc2cc(Br)ccc21 [Compound P24, 1-((5-bromo-1-(3-(methylsulfonyl)propyl)-1H-benzo[d]imidazol-2-yl)methyl)-7-fluoroquinoxalin-2(1H)-one] | 0.004 µM | 78.5 µM
25 | CS(=O)(=O)CCCn1c(Cn2c(=O)cnc3cc(F)ccc32)nc2cc(Br)ccc21 [Compound P25, 1-((5-bromo-1-(3-(methylsulfonyl)propyl)-1H-benzo[d]imidazol-2-yl)methyl)-6-fluoroquinoxalin-2(1H)-one] | 0.0065 µM | 64 µM
26 | CS(=O)(=O)CCCn1c(CN2C(=O)CN(C3CC3)c3ccncc32)nc2cc(Cl)ccc21 [Compound P26, 4-((5-chloro-1-(3-(methylsulfonyl)propyl)-1H-benzo[d]imidazol-2-yl)-methyl)-1-cyclopropyl-1,2-dihydropyrido[3,4-b]pyrazin-3(4H)-one] | 0.015 µM | > 100 µM
27 | O=C1CN(C2CC2)c2ccncc2N1Cc1nc2cc(Cl)ccc2n1CCCC(F)(F)F [Compound P27, 4-((5-chloro-1-(4,4,4-trifluorobutyl)-1H-benzo[d]imidazol-2-yl)methyl)-1-cyclopropyl-1,2-dihydropyrido[3,4-b]pyrazin-3(4H)-one] | 0.029 µM | > 100 µM
28 | CS(=O)(=O)CCCn1c(Cn2c(=O)cnc3ccc(F)cc32)cc2cc(Br)ccc21 [Compound P28, 1-((5-bromo-1-(3-(methylsulfonyl)propyl)-1H-indol-2-yl)methyl)-7-fluoroquinoxalin-2(1H)-one] | 0.018 µM | 
29 | CS(=O)(=O)CCCn1c(Cn2c(=O)cnc3cc(F)ccc32)cc2cc(Br)ccc21 [Compound P29, 1-((5-bromo-1-(3-(methylsulfonyl)propyl)-1H-indol-2-yl)methyl)-6-fluoroquinoxalin-2(1H)-one] | 0.055 µM | 9.73 µM
